Laboratory results taken from patent US9365613B2, “Acylated 4-amidino- and -4-guanidinobenzylamines for inhibition of plasma kallikrein” (The Medicines Company (Leipzig) GmbH, priority 2003, dated 2016).
pKi: −log10 of the molar value.

Key:
[1] = biological target: PK (Homo sapiens, UniProt P03952); conditions: read-out: Ki PK (literature); cited from earlier work
[2] = biological target: T1, human factor XIa (Homo sapiens, UniProt P03951); experiment: Inhibitory constants for factor XIa (substrate H-D-Lys(Z)-Pro-Arg-pNA, Chromozym PCa); assay type: biochemical; conditions: read-out: Ki F XIa
T1 construct: purchased Haemochrom Diagnostica GmbH, Essen, Germany
Description: (§1) The inhibitory effect for the individual enzymes was determined in analogy with a method which has already been described (Stürzebecher et al., J. Med. Chem. 40, 3091-3099, 1997).
(§2) After 3 min, the reaction was terminated by adding 25 μl of acetic acid (50%) and the absorption at […] was determined using a Microplate Reader (Labsystems iEMS Reader MF). The Ki values were determined, in accordance with Dixon (Biochem. J. 55, 170-171, 1953), by means of linear regression and using a computer program. The Ki values are the mean of at least three determinations.
(§3) The inhibition of factor XIa and factor XIIa was determined in an analogous manner. When determining the inhibitory constants for human factor XIa (Haemochrom Diagnostica GmbH, Essen, Germany), H-D-Lys(Z)-Pro-Arg-pNA (Chromozym PCa, Roche Diagnostics GmbH, Mannheim, Germany) was used as the substrate.

[3] = biological target: plasma kallikrein (PK) (Homo sapiens, UniProt P03952); experiment: Determining the inhibitory constants: inhibition of PK (substrate Bzl-Pro-Phe-Arg-pNA); assay type: biochemical; conditions: Tris buffer pH 8.0, 25° C.; mean of at least three determinations
Description: as §1, §2

[4] = biological target: T2, human factor XIIa (Homo sapiens, UniProt P00748); experiment: Inhibitory constants for factor XIIa (substrate H-D-HHT-Gly-Arg-pNA, Chromozym XII); assay type: biochemical; conditions: read-out: Ki F XIIa
T2 construct: purchased Haemochrom Diagnostica GmbH, Essen, Germany
Description: as §1, §2, §3
H-D-HHT-Gly-Arg-pNA (Chromozym XII, Roche Diagnostics GmbH, Mannheim, Germany) was used as the substrate for measuring the inhibitory constants of human factor XIIa (Haemochrom Diagnostica GmbH, Essen, Germany).

[5] = biological target: thrombin (UniProt P00735); experiment: Inhibitory constants for thrombin; assay type: biochemical; conditions: read-out: Ki Thrombin

T1 sequence (P03951 388-625 limits assumed): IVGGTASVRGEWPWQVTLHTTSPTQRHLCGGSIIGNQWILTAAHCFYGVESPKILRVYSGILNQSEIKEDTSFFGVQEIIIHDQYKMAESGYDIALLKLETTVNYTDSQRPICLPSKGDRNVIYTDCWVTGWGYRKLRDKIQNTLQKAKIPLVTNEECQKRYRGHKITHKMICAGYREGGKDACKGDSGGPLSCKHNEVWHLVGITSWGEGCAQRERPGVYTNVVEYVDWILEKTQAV
T1 sequence (P03951 19-387 partner limits assumed): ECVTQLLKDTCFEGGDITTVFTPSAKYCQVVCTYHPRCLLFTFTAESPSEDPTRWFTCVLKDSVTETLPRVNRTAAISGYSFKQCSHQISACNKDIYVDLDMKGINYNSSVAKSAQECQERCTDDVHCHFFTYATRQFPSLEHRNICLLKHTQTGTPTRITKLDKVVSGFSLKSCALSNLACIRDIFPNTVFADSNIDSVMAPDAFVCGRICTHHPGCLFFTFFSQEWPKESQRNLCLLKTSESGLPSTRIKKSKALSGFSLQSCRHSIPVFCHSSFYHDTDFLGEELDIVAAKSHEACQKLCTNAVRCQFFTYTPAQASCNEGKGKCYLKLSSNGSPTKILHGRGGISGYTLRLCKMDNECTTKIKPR
T2 sequence (P00748 373-615 limits assumed, other chains not shown): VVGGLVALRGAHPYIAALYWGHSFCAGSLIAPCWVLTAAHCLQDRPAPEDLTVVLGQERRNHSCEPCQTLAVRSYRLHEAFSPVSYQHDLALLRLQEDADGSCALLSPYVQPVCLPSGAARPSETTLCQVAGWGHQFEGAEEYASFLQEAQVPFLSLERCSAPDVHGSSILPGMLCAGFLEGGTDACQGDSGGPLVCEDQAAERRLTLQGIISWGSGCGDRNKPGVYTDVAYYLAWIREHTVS
Sequence of plasma kallikrein (PK) (P03952 391-638 limits assumed, species assumed): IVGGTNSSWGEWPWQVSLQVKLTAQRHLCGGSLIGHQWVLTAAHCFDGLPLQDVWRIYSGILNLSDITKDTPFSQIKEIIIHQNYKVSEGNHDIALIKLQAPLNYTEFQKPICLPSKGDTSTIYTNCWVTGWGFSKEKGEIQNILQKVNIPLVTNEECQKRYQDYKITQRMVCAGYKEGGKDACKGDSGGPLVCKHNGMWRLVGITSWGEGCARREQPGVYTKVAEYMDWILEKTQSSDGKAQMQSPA
Sequence of plasma kallikrein (PK) (P03952 20-390 partner limits assumed, species assumed): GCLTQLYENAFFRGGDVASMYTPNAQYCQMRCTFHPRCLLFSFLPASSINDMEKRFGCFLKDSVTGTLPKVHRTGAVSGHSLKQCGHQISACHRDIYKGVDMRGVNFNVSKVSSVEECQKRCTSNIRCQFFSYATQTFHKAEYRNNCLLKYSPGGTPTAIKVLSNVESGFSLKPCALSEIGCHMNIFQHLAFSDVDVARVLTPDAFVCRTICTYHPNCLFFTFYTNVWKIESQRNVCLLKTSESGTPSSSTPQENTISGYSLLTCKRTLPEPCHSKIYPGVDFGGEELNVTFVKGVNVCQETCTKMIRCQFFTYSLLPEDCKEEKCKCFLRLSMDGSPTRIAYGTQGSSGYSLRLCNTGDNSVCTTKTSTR
Sequence of PK (P03952 391-638 limits assumed): as the sequence (P03952 391-638 limits assumed, species assumed) above
Sequence of PK (P03952 20-390 partner limits assumed): as the sequence (P03952 20-390 partner limits assumed, species assumed) above

| SMILES | pKi [1] | pKi [2] | pKi [3] | pKi [4] | pKi [5] |
| --- | --- | --- | --- | --- | --- |
| CC(=O)N[C@H](Cc1ccccc1)C(=O)N1CCC[C@H]1C(=O)N[C@@H](CCCN=C(N)N)B(O)O [DuP 714, Ac-D-Phe-Pro-boroarginine] | 8.80 |  |  |  |  |
| N=C(N)NCc1cccc(C[C@@H](NS(=O)(=O)Cc2ccccc2)C(=O)NCC(=O)NCc2ccc(C(=N)N)cc2)c1 [Inhibitor 79] |  | 6.66 | 7.12 | 6.51 | 7.23 |
| N=C(N)NCC[C@@H](NS(=O)(=O)Cc1ccccc1)C(=O)NCC(=O)NCc1ccc(C(=N)N)cc1 [Inhibitor 80] |  | 6.31 | 7.17 | 6.47 | 5.68 |
| N=C(N)NCCC[C@@H](NS(=O)(=O)Cc1ccccc1)C(=O)NCC(=O)NCc1ccc(C(=N)N)cc1 [Inhibitor 81] |  | 6.15 | 7.13 | 6.46 | 5.85 |
| N=C(N)c1ccc(CNC(=O)CNC(=O)[C@@H](CC2CCCCC2)NS(=O)(=O)Cc2ccccc2)cc1 [Inhibitor 82] |  | 6.48 | 7.00 | 5.85 | 7.64 |
| COC(=O)c1ccc(CS(=O)(=O)N[C@H](Cc2cccc(C(=N)N)c2)C(=O)NCC(=O)NCc2ccc(C(=N)N)cc2)cc1 [Inhibitor 84] |  | 6.15 | 6.85 | 6.42 | 6.28 |
| N=C(N)c1ccc(CNC(=O)[C@H](CCCCNC(=O)COCC(=O)NCCOCCOCCOCCOCCOCCOCCOCCN)NC(=O)[C@@H](CO)NS(=O)(=O)Cc2ccccc2)cc1 [Inhibitor 88] |  | 6.40 | 6.66 | 4.68 | 5.92 |
| N=C(N)NCCCC(C=O)NC(=O)C(Cc1ccccc1)NC(=O)C(Cc1ccccc1)NC(=O)OC12CC3CC(CC(C3)C1)C2 [adamantyloxycarbonyl-D-Phe-Phe-arginal] | 7.92 |  |  |  |  |
| CC(C)(C)C(NC(=O)OC12CC3CC(CC(C3)C1)C2)C(=O)NC(Cc1ccccc1)C(=O)NC(CCCNC(=N)N)C(=O)C(F)(F)F [adamantyloxycarbonyl-D-tert-butylglycine-Phe-Arg-CF3] | 8.70 |  |  |  |  |
